{
  "source": "patent US20130303509A1",
  "about": "“NAMPT INHIBITORS” (AbbVie Inc., priority 2012, published 2013)",
  "note": "pIC50: −log10 of the molar value.",
  "data": [
    {"test_system": "PC3 cells", "experiment": "NAMPT Cell Proliferation Assay", "assay_type": "cell-based", "conditions": "Homo sapiens, PC-3, 120 h, 5 days incubation, cell viability by Cell Titer Glo", "how_it_was_run": "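Seeded at 500 cells/well in RPMI with 10% heat-inactivated FBS and left to attach overnight at 37° C, 5% CO2. Compounds were added as 10-fold dilutions […] for 5 days, then viability was read by CellTiter-Glo. IC50s came from sigmoidal fits of percent inhibition.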", "values": [
      {"smiles": "O=C(Nc1ccc(C2CCN(C(=O)c3cccc(F)c3F)CC2)cc1)[C@H]1CCN(c2cccnn2)C1", "note": "[Example 676, (3S)-N-{4-[1-(2,3-difluorobenzoyl)piperidin-4-yl]phenyl}-1-(pyridazin-3-yl)pyrrolidine-3-carboxamide]", "pIC50": 8.69},
      {"smiles": "Cc1cccc(C(=O)N2CCC(c3ccc(NC(=O)[C@H]4CCN(c5cccnn5)C4)cc3)CC2)c1", "note": "[Example 677, (3S)-N-{4-[1-(3-methylbenzoyl)piperidin-4-yl]phenyl}-1-(pyridazin-3-yl)pyrrolidine-3-carboxamide]", "pIC50": 8.03},
      {"smiles": "CCCCCC(=O)N1CCC(c2ccc(NC(=O)[C@H]3CCN(c4cccnn4)C3)cc2)CC1", "note": "[Example 678, (3S)-N-[4-(1-hexanoylpiperidin-4-yl)phenyl]-1-(pyridazin-3-yl)pyrrolidine-3-carboxamide]", "pIC50": 8.22},
      {"smiles": "Cc1ccsc1C(=O)N1CCC(c2ccc(NC(=O)[C@H]3CCN(c4cccnn4)C3)cc2)CC1", "note": "[Example 679, (3S)-N-(4-{1-[(3-methylthiophen-2-yl)carbonyl]piperidin-4-yl}phenyl)-1-(pyridazin-3-yl)pyrrolidine-3-carboxamide]", "pIC50": 9.22},
      {"smiles": "CC(C)C(C)C(=O)N1CCC(c2ccc(NC(=O)[C@H]3CCN(c4cccnn4)C3)cc2)CC1", "note": "(stereo partly drawn) [Example 680, (3S)-N-{4-[1-(2,3-dimethylbutanoyl)piperidin-4-yl]phenyl}-1-(pyridazin-3-yl)pyrrolidine-3-carboxamide]", "pIC50": 8.45},
      {"smiles": "CCCC(=O)N1CCC(c2ccc(NC(=O)[C@H]3CCN(c4cccnn4)C3)cc2)CC1", "note": "[Example 681, (3S)-N-[4-(1-butanoylpiperidin-4-yl)phenyl]-1-(pyridazin-3-yl)pyrrolidine-3-carboxamide]", "pIC50": 8.04},
      {"smiles": "CCC(C)CC(=O)N1CCC(c2ccc(NC(=O)[C@H]3CCN(c4cccnn4)C3)cc2)CC1", "note": "(stereo partly drawn) [Example 682, (3S)-N-{4-[1-(3-methylpentanoyl)piperidin-4-yl]phenyl}-1-(pyridazin-3-yl)pyrrolidine-3-carboxamide]", "pIC50": 8.56},
      {"smiles": "Cc1cc(C)cc(CC(=O)N2CCC(c3ccc(NC(=O)[C@H]4CCN(c5cccnn5)C4)cc3)CC2)c1", "note": "[Example 683, (3S)-N-(4-{1-[(3,5-dimethylphenyl)acetyl]piperidin-4-yl}phenyl)-1-(pyridazin-3-yl)pyrrolidine-3-carboxamide]", "pIC50": 8.04},
      {"smiles": "O=C(Nc1ccc(C2CCN(C(=O)c3cc(Cl)cc(Cl)c3)CC2)cc1)[C@H]1CCN(c2cccnn2)C1", "note": "[Example 684, (3S)-N-{4-[1-(3,5-dichlorobenzoyl)piperidin-4-yl]phenyl}-1-(pyridazin-3-yl)pyrrolidine-3-carboxamide]", "pIC50": 7.12},
      {"smiles": "Cc1c(F)cccc1C(=O)N1CCC(c2ccc(NC(=O)[C@H]3CCN(c4cccnn4)C3)cc2)CC1", "note": "[Example 685, (3S)-N-{4-[1-(3-fluoro-2-methylbenzoyl)piperidin-4-yl]phenyl}-1-(pyridazin-3-yl)pyrrolidine-3-carboxamide]", "pIC50": 8.08},
      {"smiles": "O=C(Nc1ccc(C2CCN(C(=O)Cc3ccc(Cl)cc3)CC2)cc1)[C@H]1CCN(c2cccnn2)C1", "note": "[Example 686, (3S)-N-(4-{1-[(4-chlorophenyl)acetyl]piperidin-4-yl}phenyl)-1-(pyridazin-3-yl)pyrrolidine-3-carboxamide]", "pIC50": 7.19},
      {"smiles": "O=C(Nc1ccc(C2CCN(C(=O)c3ccoc3)CC2)cc1)[C@H]1CCN(c2cccnn2)C1", "note": "[Example 687, (3S)-N-{4-[1-(furan-3-ylcarbonyl)piperidin-4-yl]phenyl}-1-(pyridazin-3-yl)pyrrolidine-3-carboxamide]", "pIC50": 8.21},
      {"smiles": "Cc1ccc(C(=O)N2CCC(c3ccc(NC(=O)[C@H]4CCN(c5cccnn5)C4)cc3)CC2)cc1C", "note": "[Example 688, (3S)-N-{4-[1-(3,4-dimethylbenzoyl)piperidin-4-yl]phenyl}-1-(pyridazin-3-yl)pyrrolidine-3-carboxamide]", "pIC50": 8.03},
      {"smiles": "O=C(Nc1ccc(C2CCN(C(=O)c3ccc(F)cc3)CC2)cc1)[C@H]1CCN(c2cccnn2)C1", "note": "[Example 689, (3S)-N-{4-[1-(4-fluorobenzoyl)piperidin-4-yl]phenyl}-1-(pyridazin-3-yl)pyrrolidine-3-carboxamide]", "pIC50": 8.01}
    ]}
  ]
}
